# Test results as given in patent US7767642B2, “Therapeutic peptides for the treatment of metastatic cancer” (Arizona Biomedical Research Commission, priority 2005, dated 2010).
# Where “and” joins values, the source holds several entries; their conditions need not be identical. Identical values can stand only once. Where no end group is shown, it is not given here. TAT = Protein Transduction Domain of the HIV protein TAT (trans-activating transcriptional activator protein), a cell-penetrating sequence
# What was measured:
# [1] = test system: MDA-MB-468 breast cancer cells; experiment: Transwell collagen gel invasion assay, peptides delivered with Bioporter; format: cell-based
# Protocol: FIG. 1. […] A collagen gel matrix was poured onto the bottom of 8 uM pore sized-transwell inserts (modified Boyden's chamber), then inverted into 20% FBS. Cells were incubated with 100 ng/ml of peptide (with Bioporter reagent to allow for cellular uptake), then added to the top of the Transwell. Cells (serum-free) were allowed to invade into the gel, the gel was removed and invading cells enumerated.
# (§1) Peptide treatment and invasion assay: 8 um pore size Transwell inserts (Corning) will be inverted and coated with 90 ul of Type I collagen (rat tail, BD Scientific) gel mixture (2.2% sodium bicarbonate, 10× M199 media), and allowed to solidify for 30 minutes. Wells are then be inverted into DMEM with 20% fetal calf serum and allowed to rehydrate. Peptides are incubated with BioPORTER reagent (Sigma, St. Louis Mo.) for 5 minutes to promote cellular uptake, vortexed, and added to cells in serum-free media (10 ng/ml, 100 ng/ml and […] concentrations will be tested) and placed in the upper chamber of the Transwell. Cells will then be incubated for 2, 4 or 24 hours. Media is removed and gels fixed with 4% paraformaldehyde for 30 minutes and transferred to PBS, pH 7.4. Collagen gels will then either be stained with bizbenzamide for 40 minutes and all cells invaded into a gel enumerated or used in immunofluorescence assays. Invasion of peptide-treated cells are compared to PBS/bioporter treated controls or irrelevant peptide treatment.
# To investigate the functional significance of MUC1 expression on breast cancer invasion, we have incubated invasive breast cancer cell lines with MUC1-mimetic peptides designed to the β-catenin interacting domain. We then monitored the effects of peptide treatment on invasion through a filter and into a collagen gel.
# We performed initial experiments with these β-catenin-binding site (M2) peptides in MDA-MB-468 cells. […] We observed less than 15 M2 peptide-treated cells invaded into a collagen matrix in a 4 hour period, compared to approximately 125 cells in PBS controls.
# [2] = test system: MDA-MB-231 breast cancer cells; experiment: Invasion assay with TAT-conjugated MUC1-mimetic peptides; format: cell-based; conditions: MDA-MB-231, compared to control TAT peptide
# Protocol: FIG. 4. Treatment of MDA-MB-231 cells with MEBTAT leads to a 5-fold decrease in cell invasiveness as compared to control TAT peptide in invasion assays.
# as §1
# We have designed TAT-conjugated MUC1-mimetic peptides for their ability to inhibit the invasion of MDA-MB-231 and MDA-MB-468 invasive breast cancer cell lines. […]
# [3] = test system: MDA-MB-231 cell line; experiment: Scid xenograft model Trial 1, i.p. treatment; format: in vivo; conditions: for animals with tumor regression / tumor regression in the regressing animal: once daily MWF
# Protocol: Trial 1. The MDA-MB-231 cell line was injected (in matrigel) into the mammary fat pad of 24 mice. These mice were then divided into 3 groups and injected once daily, MWF, for 2 weeks.
# Group IA was treated (i.p.) with 10 ug/g body weight MEBTAT peptide
# Group IB was treated (i.p.) with 20 ug/g body weight MEBTAT peptide
# Group IC was treated (i.p.) with 20 ug/g body weight TAT peptide
# At the end of 2 weeks, we had 27% tumor regression in 1/7 animals in group IA, 7% tumor regression in 1/7 animals in group IB, and no tumor regression (0/7) in group IC.
# All tumors were surgically resected 3 days after final drugging, and the mice were monitored for an additional 10 days. […] This correlates to a 25% increase in overall survival time for the animals taking 20 ug/g body weight of MEBTAT compared to TAT.
# [4] = test system: MDA-MB-231 cells; experiment: 96-well invasion assay of MEBTAT and alanine-scanning mutants; format: cell-based; conditions: 96-well format, 1 hour treatment, 18 hours invasion
# Protocol: The amino acids of the MEB sequence [PYEKVSAGNGGSSLS; SEQ ID NO: 1] were replaced, one amino acid at a time, with alanine. (Note that there are only […] mutants, as one of the parental amino acid residues. was already an alanine). Note also that this experiment was done one time, with 4 replicas at each data point.
# A new assay was performed in a 96-well format. While the suppression of invasion is not as robust as that observed in the 24-well format, we still observe a 3-fold suppression of invasion with MEBTAT treatment over TAT or PBS. […] Altering any of the remaining amino acids completely eliminated the effect, indicating a critical role for both the YEKV (EGFR/src binding site) and the SAGNGGSSLS (beta-catenin binding site). Also important is the P (at residue #1) that links MEB to the TAT. The proline could be providing important access of the peptide to MUC1 binding sites.
# MDA-MB-231 cells were treated for 1 hour with MEBTAT (M), TAT (T), PBS (P), or alanine scanning mutants of MEBTAT. Cells were treated with Calcein-AM and allowed to invade across an 8-uM Transwell into a Type I collagen gel for 18 hours. Invasion was analyzed by spectrophotometry.
# [5] = target: T1, β-catenin (Homo sapiens, UniProt P35222); experiment: β-catenin localization after peptide treatment; format: cell-based; conditions: MDA-MB-231 cells treated with peptide
# T1 construct: endogenous in cells; host or cells: MDA-MB-231 breast cancer cells
# T1 sequence (P35222 1-781): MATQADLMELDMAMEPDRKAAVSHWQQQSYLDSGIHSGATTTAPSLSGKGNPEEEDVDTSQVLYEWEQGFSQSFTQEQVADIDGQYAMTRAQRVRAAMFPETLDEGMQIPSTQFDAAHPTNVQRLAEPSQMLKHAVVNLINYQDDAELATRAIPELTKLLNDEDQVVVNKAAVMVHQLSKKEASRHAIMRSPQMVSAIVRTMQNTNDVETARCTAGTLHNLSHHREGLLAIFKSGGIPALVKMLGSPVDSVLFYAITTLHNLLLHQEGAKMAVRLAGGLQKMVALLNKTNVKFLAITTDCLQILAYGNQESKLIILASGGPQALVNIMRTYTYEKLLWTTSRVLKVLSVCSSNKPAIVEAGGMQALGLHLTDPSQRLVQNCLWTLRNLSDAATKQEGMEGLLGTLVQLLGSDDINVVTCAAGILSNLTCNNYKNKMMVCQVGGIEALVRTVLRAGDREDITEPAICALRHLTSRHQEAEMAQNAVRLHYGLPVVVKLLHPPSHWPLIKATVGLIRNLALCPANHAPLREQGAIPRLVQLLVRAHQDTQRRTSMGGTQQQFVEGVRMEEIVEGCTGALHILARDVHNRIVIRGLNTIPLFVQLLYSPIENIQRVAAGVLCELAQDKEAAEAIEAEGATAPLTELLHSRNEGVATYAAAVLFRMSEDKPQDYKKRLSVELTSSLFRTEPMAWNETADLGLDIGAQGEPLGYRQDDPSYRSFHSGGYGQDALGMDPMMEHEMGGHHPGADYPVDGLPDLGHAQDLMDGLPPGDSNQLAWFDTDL
# Protocol: Immunofluorescence: Cells undergoing invasion through collagen gels are immunofluorescently labeled in situ (while in the collagen gel). For immunofluorescence on collagen gels, gels are permeabilized with 0.5% Triton X-100 in 10 mM Pipes (pH 6.8), 50 mM NaCl, 300 mM sucrose and 3 mM MgCl2 for 5 minutes at room temperature. Gels are blocked with 3% BSA (Sigma), 0.05% Tween 20, in a 1:1 solution of PBS and Enhancing Wash Buffer (Innovex). Primary antibodies are incubated overnight at 4° C., and gels washed for 6 hours in 1:1 PBS: Enhancing Wash Buffer. Secondary antibodies are incubated overnight at 4° C., and washed again for 6 hours at room temperature. Gels are then mounted, coverslipped and analyzed using a Zeiss laser scanning confocal microscope. The following antibodies are used: anti-biotin (streptavidin-Alexa594, 1:500, Molecular Probes), anti-Muc1 (1:100, Santa Cruz), anti-vinculin (V9131, 1:400, Sigma Chemical Company) anti-β-catenin (H-102, 1:100, Santa Cruz Biochemical), anti-fascin (FCN01, 1:50, Neomarkers), and phalloidin-Alexa546 (1:100, Molecular Probes). Secondary antibodies can be either Alexa 488 or 546 from Molecular Probes.
# [6] = test system: MDA-MB-231 cell line; experiment: Scid xenograft model Trial II, i.v. treatment; format: in vivo; conditions: 20 ug/g body weight i.v.
# Protocol: Trial II: The MDA-MB-231 cell line was injected (in matrigel) into the mammary fat pad of 16 mice. These mice were then divided into 2 groups and injected once daily, MTWThF, for 2 weeks.
# Group IIA was treated (i.v.) with 20 ug/g body weight MEBTAT peptide
# Group IIB was treated (i.v.) with 20 ug/g body weight TAT peptide
# All animals were sacrificed and analyzed for metastases.
# [7] = test system: MDA-MB-231 and MDA-MB-468 invasive breast cancer cell lines; experiment: Invasion assay with TAT-conjugated MUC1-mimetic peptides, cell line not given; format: cell-based; conditions: TAT-conjugated peptide
# Protocol: as §1
# We have designed TAT-conjugated MUC1-mimetic peptides for their ability to inhibit the invasion of MDA-MB-231 and MDA-MB-468 invasive breast cancer cell lines.
# Peptides were designed to carry the TAT transduction domain for entry into cells. The following peptides were designed, produced and tested: […]
# [8] = 10 ug/g body weight i.p., end of 2 weeks
# [9] = 20 ug/g body weight i.p., end of 2 weeks
substance,measurement,setting,value
"M2: MUC1-β-catenin binding domain mimetic peptide, SEQ ID NO: 7 (SAGNGGSSLSY; listed as Homo sapiens)",cells invaded into a collagen matrix,"[1]; 4 hour period, approximately 125 cells in PBS controls",less than 15 cells
same,inhibition of invasion into a collagen matrix,"[1]; MDA-MB-468, 100 ng/ml peptide with Bioporter, vs PBS controls",approximately 8 fold
same,effect on invasion,"[1]; MDA-MB-468, compared to PBS treated controls",inhibits invasion
TAT-PYEKVSAGNGGSSLS ({TAT}-PYEKVSAGNGGSSLS; listed as Homo sapiens) [MEBTAT],decrease in cell invasiveness / block of invasion,[2],5 fold and 6 fold
same,animals with tumor regression,[3]; [8],1/7
same,tumor regression in the regressing animal,[3]; [8],27%
same,increase in overall survival time compared to TAT,[3]; 20 ug/g body weight i.p.,25%
same,animals with tumor regression,[3]; [9],1/7
same,tumor regression in the regressing animal,[3]; [9],7%
same,toxicity of the peptide treatment,"[3]; 10 and 20 ug/g body weight i.p., 2 weeks",no detectable toxicity
same,tumor regrowth after surgical resection,"[3]; all 3 groups, monitored 10 days after resection",no statistically significant difference in growth rates
same,decrease in tumor volume compared to TAT,"[3]; all treatment groups, i.p., end of 2 weeks",20%
same,suppression of invasion over TAT or PBS,[4],3 fold
same,β-catenin localization,[5],β-catenin localization at sites of focal adhesion and lamellapodia
same,toxicity,[6]; 2 weeks,no detectable toxicity
same,tumor volume reduction in regressing animals,"[6]; end of 2 weeks, individual mice",7% and 9% and 21%
same,animals with tumor regression,"[6]; once daily MTWThF, end of 2 weeks",3/8
same,visible metastases in diaphragms (animals),[6]; sacrifice at 2 weeks,4/8
same,visible metastases in livers (animals),[6]; sacrifice at 2 weeks,1/8
same,visible metastases in lungs (animals),[6]; sacrifice at 2 weeks,0/8
"TAT-SSTDRSPYEKVSAGNGGSSLSYTNP ({TAT}-SSTDRSPYEKVSAGNGGSSLSYTNP; listed as Homo sapiens) [MTAT1, used for positive controls, reference compound]",increase of invasion,[7],18 fold
TAT-SAGNGGSSLS ({TAT}-SAGNGGSSLS; listed as Homo sapiens) [MBTAT],suppression of invasion,[7],8 fold
